Molecules are shown by their SMILES.

The record followed here is BindingDB's records for doi:10.1016/j.bmc.2017.03.009 (Wuhan Institute of Technology, 2017).

Assay [1] is described as follows: Inhibition of HIV-1 reverse transcriptase E138K mutant infected in human MT4 cells assessed as protection against virus-induced cytopathic effect measured at 5 days post infection by MTT assay.
A short description of assay [2]: Inhibition of HIV1 RES056 reverse transcriptase K103N/Y181C double mutant infected in human MT4 cells assessed as protection against virus-induced cytopathic effect measured at 5 days post infection by MTT assay.

For `N#Cc1ccc(Nc2nccc(OCc3ccc(Br)cc3F)n2)cc1`, the EC50 is 35.8 µM in assay [1] and greater than 141 µM in assay [2].

Turning to `N#Cc1ccc(Nc2nccc(OCc3ccccc3C(F)(F)F)n2)cc1`, the concentration giving a half-maximal response (EC50) in assay [1] and in assay [2] was greater than 173 µM in each case.

As to `N#Cc1ccc(Nc2nccc(OCc3ccccc3F)n2)cc1`, the EC50 in assay [1] was 0.3 µM; in assay [2], greater than 151 µM.

In the case of `N#Cc1ccc(Nc2nccc(OCc3ccc(F)cc3)n2)cc1`, the EC50 in assay [1] and in assay [2] was greater than 81 µM in each case.

For `N#Cc1ccc(Nc2nccc(OCc3ccccc3)n2)cc1`, the EC50 in assay [1] is 1.8 µM; in assay [2], greater than 13 µM.

For the molecule `N#Cc1ccc(Nc2nccc(OCc3cccc(F)c3)n2)cc1`, the results for the EC50 in assay [1] and in assay [2] were 1.88 µM and greater than 105 µM, respectively.

On to `Cc1cc(C)nc(Sc2ccnc(Nc3ccc(C#N)cc3)n2)n1`, for which the EC50 in assay [1] and in assay [2] was greater than 224 µM in each case.

As to `Cc1cccc(COc2ccnc(Nc3ccc(C#N)cc3)n2)c1`, the EC50 is 1.18 µM in assay [1] and greater than 30 µM in assay [2].

`COc1cccc(COc2ccnc(Nc3ccc(C#N)cc3)n2)c1`: the EC50 in assay [1] was 1.1 µM; in assay [2] it was greater than 118 µM.

In the case of `N#Cc1ccc(Nc2nccc(OCc3cccc4ccccc34)n2)cc1`, the EC50 in assay [1] was 0.3 µM; in assay [2], greater than 7.7 µM.

With `N#Cc1ccc(Nc2nccc(OCc3cccc(Cl)c3)n2)cc1`, the EC50 in assay [1] and in assay [2] was greater than 153 µM throughout.

On to `N#Cc1ccc(Nc2nccc(OCc3ccccc3C#N)n2)cc1`, for which the EC50 in assay [1] and in assay [2] was greater than 113 µM each time.

Turning to `N#Cc1ccc(Nc2nccc(NCc3ccccn3)n2)cc1`, the EC50 is 0.24 µM in assay [1] and greater than 8.5 µM in assay [2].

On to `N#Cc1ccc(Nc2nccc(OCc3ccc(Cl)cc3)n2)cc1`, for which the EC50 in assay [1] and in assay [2] was greater than 156 µM throughout.

As for `N#Cc1ccc(Nc2nccc(OCc3cccc(C(F)(F)F)c3)n2)cc1`, the EC50 in assay [1] and in assay [2] was greater than 118 µM in each case.

For the molecule `N#Cc1ccc(Nc2nccc(OCc3ccccc3Br)n2)cc1`, the EC50 in assay [1] and in assay [2] was greater than 130 µM throughout.

In the case of `N#Cc1ccc(Nc2nccc(OCc3cccc(Br)c3)n2)cc1`, the EC50 is 5 µM in assay [1] and greater than 221 µM in assay [2].

On to `COc1ccc(COc2ccnc(Nc3ccc(C#N)cc3)n2)cc1`, for which the EC50 in assay [1] and in assay [2] was greater than 102 µM throughout.

As for `N#Cc1ccc(Nc2nccc(OCc3cccc(C#N)c3)n2)cc1`, the EC50 in assay [1] and in assay [2] was greater than 4.1 µM each time.

For the molecule `N#Cc1ccc(Nc2nccc(OCc3ccccc3Cl)n2)cc1`, the EC50 in assay [1] and in assay [2] was greater than 146 µM in each case.

Take `COc1cc(COc2ccnc(Nc3ccc(C#N)cc3)n2)cc(OC)c1`: the EC50 is 0.23 µM in assay [1] and greater than 44 µM in assay [2].

`N#Cc1ccc(Nc2nccc(OCc3cc(F)ccc3Br)n2)cc1`: the EC50 in assay [1] and in assay [2] was greater than 190 µM each time.

Turning to `N#Cc1ccc(COc2ccnc(Nc3ccc(C#N)cc3)n2)cc1`, the EC50 in assay [1] and in assay [2] was greater than 209 µM each time.

With `N#Cc1ccc(Nc2nccc(OCc3ccc(Br)cc3)n2)cc1`, the EC50 in assay [1] and in assay [2] was greater than 16 µM each time.

As for `N#Cc1ccc(Nc2nccc(OCc3cccnc3)n2)cc1`, the EC50 in assay [1] and in assay [2] was greater than 6.4 µM in each case.

On to `Cc1ccccc1COc1ccnc(Nc2ccc(C#N)cc2)n1`, for which the EC50 in assay [1] and in assay [2] was greater than 12 µM throughout.

As for `CN(C)c1ccnc(Nc2ccc(C#N)cc2)n1`, the EC50 in assay [1] and in assay [2] was greater than 34 µM each time.

With `Cc1ccc(COc2ccnc(Nc3ccc(C#N)cc3)n2)cc1`, the EC50 in assay [1] was 7.2 µM; in assay [2], greater than 81 µM.

For the molecule `COc1ccccc1COc1ccnc(Nc2ccc(C#N)cc2)n1`, the EC50 in assay [1] is 2.1 µM; in assay [2] it was greater than 8.9 µM.

Regarding `N#Cc1ccc(Nc2nccc(OCc3ccc4ccccc4c3)n2)cc1`, the concentration giving a half-maximal response (EC50) in assay [1] is 10 µM; in assay [2], greater than 212 µM.

The EC50 is the concentration giving half of the maximal effect.
